Measurements from patent US12653796B2, “Compounds for use (in particular RIPA-56) in the prevention and/or treatment of non-alcoholic fatty liver disease” (SORBONNE UNIVERSITE, priority 2019, dated 2026).

Columns and labels:
MLKL = assay: Western blot of MLKL phosphorylation/activation in TNF-treated L929 cells; type: cell-based; details: within hours
Procedure: FIG. 1. RIPA-56 prevents RIPK1-dependent cell death in L929 cells upon caspase inhibition and TNF stimulation. L929 cells were treated with RIPA-56 (20 μM), Nec-1 (20 μM) or vehicle for 2 h, prior to incubation with or without TNF (50 ng/mL), and analyzed for (A) morphology and (B) cell survival using MTT assay, after 20 h incubation with or without TNF; (C) Western blot analyses at different time points of incubation with TNF. Results are shown as mean±SEM; n.s., not significant; ****p<0.0001. Data are representative of three independent experiments.
L929 cells (LGC Standards, Molsheim, France), were cultured in Dulbecco's modified Eagle's medium (DMEM) (ThermoFisher, Massachusetts, USA) supplemented with 10% fetal bovine serum (Eurobio, Courtaboeuf, France), penicillin (100 IU/ml), streptomycin (0.1 mg/ml), and L-glutamine (0.03%) (ThermoFisher). […]
Tissue samples were homogenized in NP-40 lysis buffer using a tissue grind pestle (Kimble, Rockwood, USA) or with a bead ruptor 12 (Omni International, Georgia, USA) to obtain protein lysates. Thirty μg of protein extracts from cells or tissue homogenates were separated by SDS-PAGE, transferred to polyvinylidene difluoride membrane and analyzed by immunoblotting. […]

RIPK1 = assay: ELISA of RIPK1 released in supernatant of L929 cells exposed to TNFα; type: cell-based, murine; details: 20 μM, 2 h, then TNFα (25 ng/mL) 6 h
Procedure: FIG. 12. […] Results are shown as mean±SEM of six replicates.
L929 cells (LGC Standards, Molsheim, France), were cultured in Dulbecco's modified Eagle's medium (DMEM) (ThermoFisher, Massachusetts, USA) supplemented with 10% fetal bovine serum (Eurobio, Courtaboeuf, France), penicillin (100 IU/ml), streptomycin (0.1 mg/ml), and L-glutamine (0.03%) (ThermoFisher). […] AML-12 (alpha mouse liver-12) hepatocytes (LGC Standards) were cultured in DMEM/F12 Medium (ThermoFisher) supplemented with 10% fetal bovine serum (Eurobio), 10 μg/ml insulin, 5.5 μg/ml transferrin, 5 ng/ml selenium and 40 ng/ml dexamethasone (Sigma, Missouri, USA). AML-12 hepatocytes were stimulated with insulin (#I0516, 10 nM; Sigma) for 15 minutes.
Protein concentrations of human RIPK1 (SEE640Hu; Could-Clone Corp., Texas, USA), human MLKL (SER645Hu; Could-Clone Corp.) and murine RIPK1 (CSB-EL019735MO; Cusabio, Texas, USA) were determined by an ELISA kit according to the manufacturer's instructions.

## CCC(C)(C)C(=O)N(O)Cc1ccccc1 [RIPA-56, N-Benzyl-N-hydroxy-2,2-dimethylbutanamide]
MLKL
  phosphorylation and activation of MLKL: inhibited
RIPK1
  RIPK1 in the supernatant: undetectable
